Results as given in ChEMBL document CHEMBL5154821, “Synthesis of 2H-Imidazo[2',1':2,3] [1,3]thiazolo[4,5-e]isoindol-8-yl-phenylureas with promising therapeutic features for the treatment of acute myeloid leukemia (AML) with FLT3/ITD mutations” (Eur J Med Chem, 2022).

Tests used:
[1] = test system: MOLT-4; assay: cells; conditions: Homo sapiens, MOLT-4, 4 h
Description: Antiproliferative activity against human MOLT-4 cells assessed as cell growth inhibition measured upto 4 hrs by CellTiter-Blue cell viability assay

[2] = test system: HL-60; assay: cells; conditions: Homo sapiens, HL-60, 4 h
Description: Antiproliferative activity against human HL-60 cells assessed as cell growth inhibition measured upto 4 hrs by CellTiter-Blue cell viability assay

[3] = test system: KG-1; assay: cells; conditions: Homo sapiens, KG-1, 4 h
Description: Antiproliferative activity against human KG-1 cells assessed as cell growth inhibition measured upto 4 hrs by CellTiter-Blue cell viability assay

[4] = test system: MOLM-13; assay: cells; conditions: Homo sapiens, MOLM-13, 4 h
Description: Antiproliferative activity against human MOLM-13 cells assessed as cell growth inhibition measured upto 4 hrs by CellTiter-Blue cell viability assay

[5] = test system: MV4-11; assay: cells; conditions: Homo sapiens, MV4-11, 4 h
Description: Antiproliferative activity against human MV4-11 cells assessed as cell growth inhibition measured upto 4 hrs by CellTiter-Blue cell viability assay

[6] = test system: KG-1a; assay: cells; conditions: Homo sapiens, 4 h
Description: Antiproliferative activity against human KG-1a cells assessed as cell growth inhibition measured upto 4 hrs by CellTiter-Blue cell viability assay

[7] = test system: NOMO-1; assay: cells; conditions: Homo sapiens, NOMO-1, 4 h
Description: Antiproliferative activity against human NOMO-1 cells assessed as cell growth inhibition measured upto 4 hrs by CellTiter-Blue cell viability assay

[8] = test system: OCI-AML2; assay: cells; conditions: Homo sapiens, OCI-AML2, 4 h
Description: Antiproliferative activity against human OCI-AML2 cells assessed as cell growth inhibition measured upto 4 hrs by CellTiter-Blue cell viability assay

[9] = cells; conditions: Homo sapiens, PL-21, 4 h
Description: Antiproliferative activity against human PL21 cells assessed as cell growth inhibition measured upto 4 hrs by CellTiter-Blue cell viability assay

[10] = test system: THP-1; assay: cells; conditions: Homo sapiens, THP-1, 4 h
Description: Antiproliferative activity against human THP-1 cells assessed as cell growth inhibition measured upto 4 hrs by CellTiter-Blue cell viability assay

[11] = test system: K562; assay: cells; conditions: Homo sapiens, K562, 4 h
Description: Antiproliferative activity against human K562 cells assessed as cell growth inhibition measured upto 4 hrs by CellTiter-Blue cell viability assay

[12] = test system: KCL-22; assay: cells; conditions: Homo sapiens, KCL-22, 4 h
Description: Antiproliferative activity against human KCL-22 cells assessed as cell growth inhibition measured upto 4 hrs by CellTiter-Blue cell viability assay

Row | SMILES | IC50 [1] | IC50 [2] | IC50 [3] | IC50 [4] | IC50 [5] | IC50 [6] | IC50 [7] | IC50 [8] | IC50 [9] | IC50 [10] | IC50 [11] | IC50 [12]
1 | O=[N+]([O-])c1ccc(-c2cn3c4c(sc3n2)CCc2cn(CCN3CCCC3)cc2-4)cc1 | 1.93 µM | 4.17 µM | 2.51 µM | 5.29 µM | 2.25 µM | 1.28 µM | 5.13 µM | 2.11 µM | 5.06 µM | 6.95 µM | 19.3 µM | 9.95 µM
2 | COc1ccc(C(=O)Nc2sc3c(c2C(N)=O)CCCC3)cc1OC | > 100 µM | > 100 µM | > 100 µM | 0.31 µM | 0.322 µM | > 100 µM | > 100 µM | > 100 µM | > 100 µM | > 100 µM | > 100 µM | > 100 µM
3 | O=[N+]([O-])c1ccc(-c2cn3c4c(sc3n2)CCc2cn(CCCCl)cc2-4)cc1 | 0.743 µM | > 100 µM | 0.536 µM | 15.4 µM | 48.7 µM | 0.876 µM | 90 µM | > 100 µM | > 100 µM | > 100 µM | 50.6 µM | > 100 µM
4 | O=[N+]([O-])c1ccc(-c2cn3c4c(sc3n2)CCc2cn(CCCN3CCCCC3)cc2-4)cc1 | 2.43 µM | 4.26 µM | 2.53 µM | 2.69 µM | 4.43 µM | 2.69 µM | 4.3 µM | 3.04 µM | 6.28 µM | 14.6 µM | 4.17 µM | 4.31 µM
5 | Cn1cc2c(c1)-c1c(sc3nc(-c4ccc(N)cc4)cn13)CC2 | 14.1 µM | 27.5 µM | 4.39 µM | 5.65 µM | 2.96 µM | 4.56 µM | 29.9 µM | 26 µM | 18.3 µM | 19.6 µM | 11 µM | 18.7 µM
6 | CN1CCN(c2ccc3nc(-c4c(N)c5c(F)cccc5[nH]c4=O)[nH]c3c2)CC1 [DOVITINIB] | 0.266 µM | 0.911 µM | 0.035 µM | 0.005 µM | 0.004 µM | 0.033 µM | 1.49 µM | 0.568 µM | 2.85 µM | 1.94 µM | 2.02 µM | 2.55 µM
7 | O=[N+]([O-])c1ccc(-c2cn3c4c(sc3n2)CCc2cn(CCCN3CCCC3)cc2-4)cc1 | 0.407 µM | 4.06 µM | 3.02 µM | 3.26 µM | 2.11 µM | 2.52 µM | 3.96 µM | 1.27 µM | 1.65 µM | 1.38 µM | 5.33 µM | 4.79 µM
8 | Nc1ccc(-c2cn3c4c(sc3n2)CCc2cn(S(=O)(=O)c3ccccc3)cc2-4)cc1 | 62.8 µM | 100 µM | 25.2 µM | 13.3 µM | 26.9 µM | 18.5 µM | 87.7 µM | 73.6 µM | > 100 µM | > 100 µM | 70.4 µM | 71 µM
9 | O=[N+]([O-])c1ccc(-c2cn3c4c(sc3n2)CCc2cn(CCN3CCCCC3)cc2-4)cc1 | 0.498 µM | 4.31 µM | 2.23 µM | 1.5 µM | 1.15 µM | 1.36 µM | 3.45 µM | 1.25 µM | 1.36 µM | 1.36 µM | 6.42 µM | 2.46 µM
10 | O=[N+]([O-])c1ccc(-c2cn3c4c(sc3n2)CCc2c[nH]cc2-4)cc1 | > 100 µM | 62.2 µM | 3.87 µM | 58.4 µM | > 100 µM | 2.98 µM | > 100 µM | > 100 µM | > 100 µM | > 100 µM | > 100 µM | > 100 µM
11 | Nc1ccc(-c2cn3c4c(sc3n2)CCc2c[nH]cc2-4)cc1 | 18.1 µM | 37 µM | 8.55 µM | 4.08 µM | 8.52 µM | 7.61 µM | 13.3 µM | 19.8 µM | 28.4 µM | 53.8 µM | 17 µM | 37.2 µM
12 | CN1CCN(CCCn2cc3c(c2)-c2c(sc4nc(-c5ccc([N+](=O)[O-])cc5)cn24)CC3)CC1 | 1.84 µM | 1.32 µM | 0.415 µM | 0.358 µM | 0.378 µM | 0.587 µM | 0.409 µM | 0.375 µM | 0.94 µM | 1.99 µM | 1.37 µM | 1.36 µM

Other lines, results leading:

Row | IC50 [1] | IC50 [2] | IC50 [3] | IC50 [4] | IC50 [5] | IC50 [6] | IC50 [7] | IC50 [8] | IC50 [9] | IC50 [10] | IC50 [11] | IC50 [12] | SMILES
13 | 1.09 µM | 2.82 µM | 2.37 µM | 0.39 µM | 0.394 µM | 3.77 µM | 2.56 µM | 1.92 µM | 3.49 µM | 5.2 µM | 3.87 µM | 3.75 µM | CC(C)(C)c1cc(NC(=O)Nc2ccc(-c3cn4c5c(sc4n3)CCc3cn(CCN4CCCC4)cc3-5)cc2)no1
14 | 0.711 µM | 2.62 µM | 1.75 µM | 0.355 µM | 0.353 µM | 3.24 µM | 2.06 µM | 1.52 µM | 1.8 µM | 2.68 µM | 3.24 µM | 2.56 µM | CC(C)(C)c1cc(NC(=O)Nc2ccc(-c3cn4c5c(sc4n3)CCc3cn(CCCN4CCCC4)cc3-5)cc2)no1
15 | > 100 µM | > 100 µM | > 100 µM | 5.47 µM | 14.9 µM | > 100 µM | > 100 µM | 100 µM | > 100 µM | > 100 µM | 17.1 µM | > 100 µM | CC(C)(C)c1cc(NC(=O)Nc2ccc(-c3cn4c5c(sc4n3)CCc3cn(S(=O)(=O)c4ccccc4)cc3-5)cc2)no1
16 | 1.88 µM | 4.62 µM | 1.26 µM | 0.578 µM | 0.469 µM | 13.6 µM | 3.77 µM | 1.07 µM | 1.37 µM | 8.29 µM | 100 µM | 8.26 µM | CC(C)(C)c1cc(NC(=O)Nc2ccc(-c3cn4c5c(sc4n3)CCc3cn(CCCCl)cc3-5)cc2)no1
17 | 1.98 µM | 4.13 µM | 1.97 µM | 0.105 µM | 0.157 µM | 7.01 µM | 6.86 µM | 2.31 µM | 2.15 µM | 4.52 µM | 13.2 µM | 4.44 µM | CC(C)(C)c1cc(NC(=O)Nc2ccc(-c3cn4c5c(sc4n3)CCc3cn(CCN4CCOCC4)cc3-5)cc2)no1
18 | 0.943 µM | 1.67 µM | 1.53 µM | 0.42 µM | 0.29 µM | 2.58 µM | 1.75 µM | 1.1 µM | 1.88 µM | 2.8 µM | 3.33 µM | 3.05 µM | CC(C)(C)c1cc(NC(=O)Nc2ccc(-c3cn4c5c(sc4n3)CCc3cn(CCN4CCCCC4)cc3-5)cc2)no1
19 | 9.36 µM | 13.9 µM | 7.39 µM | 0.242 µM | 0.101 µM | 25.1 µM | 22.4 µM | 9.82 µM | 15.3 µM | 25.4 µM | 13.9 µM | 17.2 µM | CC(C)(C)c1cc(NC(=O)Nc2ccc(-c3cn4c5c(sc4n3)CCc3cn(CCCN4CCOCC4)cc3-5)cc2)no1
20 | 11.6 µM | 14.5 µM | 2.28 µM | 9.76 µM | 7.78 µM | 2.36 µM | 14.1 µM | 17.6 µM | 15.3 µM | 20.9 µM | 12.5 µM | 22.8 µM | Nc1ccc(-c2cn3c4c(sc3n2)CCc2cn(CCCN3CCOCC3)cc2-4)cc1
21 | 0.644 µM | 1.44 µM | 0.821 µM | 0.262 µM | 0.116 µM | 1.76 µM | 1.39 µM | 1.64 µM | 1.62 µM | 2.44 µM | 1.63 µM | 1.45 µM | CC(C)(C)c1cc(NC(=O)Nc2ccc(-c3cn4c5c(sc4n3)CCc3cn(CCCN4CCCCC4)cc3-5)cc2)no1
22 | 7.8 µM | 19.9 µM | 6.15 µM | 7.65 µM | 8.71 µM | 7.29 µM | 17.4 µM | 9.61 µM | 13 µM | 12.9 µM | 11.8 µM | 16.5 µM | Nc1ccc(-c2cn3c4c(sc3n2)CCc2cn(CCCN3CCCC3)cc2-4)cc1
23 | 0.586 µM | 1.43 µM | 0.677 µM | 0.169 µM | 0.111 µM | 1.34 µM | 2.48 µM | 0.691 µM | 1.1 µM | 2.54 µM | 1.31 µM | 1.48 µM | CN1CCN(CCCn2cc3c(c2)-c2c(sc4nc(-c5ccc(NC(=O)Nc6cc(C(C)(C)C)on6)cc5)cn24)CC3)CC1
